Experiments:
[1] = Microsomal stability (rat); type: in vitro ADME; details: rat liver microsomes 0.5 mg/mL; read-out: Microsomal stability (in vitro CLint), Rat
Protocol: (§1) The master solution was prepared as follows.
(§2) Two separate experiments were performed as follows:
(§3) With NADPH: 10 μL of 20 mg/mL liver microsomes and 40 μL of 10 mM NADPH were added to the incubations. The final concentrations of microsomes and NADPH were 0.5 mg/mL and 1 mM, respectively.
(§4) Without NADPH: 10 μL of 20 mg/mL liver microsomes and 40 μL of ultra-pure H2O were added to the incubations. The final concentration of microsomes was 0.5 mg/mL.
(§5) The reaction was started with the addition of 4 μL of 3, 10, 30 and 100 μM test compound solution or control compound solution at the final concentration of 0.03, 0.1, 0.3 and 1 μM and carried out at 37° C.
(§6) Aliquots of 50 μL were taken from the reaction solution at 0, 15, 30, 45 and 60 min. The reaction was stopped by the addition of 4 volumes of cold acetonitrile with IS (100 nM alprazolam, 200 nM labetalol, 200 nM caffeine and 2 μM ketoprofen). Samples were centrifuged at 3, 220 g for 40 minutes. Aliquot of 100 μL of the supernatant was mixed with 100 μL of ultra-pure H2O and then used for LC-MS/MS analysis. […]
(§7) Peak areas were determined from extracted ion chromatograms. The slope value, k, was determined by linear regression of the natural logarithm of the remaining percentage of the parent drug vs. incubation time curve.
(§8) The in vitro half-life (in vitro t1/2) was determined from the slope value: […]

[2] = Rat pharmacokinetic study (plasma); type: in vivo, male SD rats; details: IV 1 mg/kg
Protocol: The rat pharmacokinetics studies of exemplary compounds 03-3, 03-5, and 03-115 were conducted with male SD rats. These rats were typically about 6-8 weeks old, weighing 200 g to 300 g. Animals were fasted overnight and free access to food 4 hours after dosing. A required volume of vehicle was added to reach the target concentration of the test article and vehicle component to prepare for the dosing. The dosing vehicle was PEG400 or 30% PEG400 in saline for IV, or 0.5% methylcellulose in water for PO. For IV dosing, the animals were administered intravenously via tail vein. For PO dosing, the animals were administered via oral gavage. After dosing, blood sample was collected (˜0.2 mL per time point) through jugular vein or heart puncture. Blood of each sample was transferred into plastic micro centrifuge tubes containing EDTA-K2. Collection tubes with blood samples and anticoagulant were inverted several times for proper mixing of the tube contents and then placed on wet ice. The blood samples were centrifuged at 2000 g for 5 minutes at 4° C. to obtain plasma which was stored in a freezer at −75±15° C. prior to analysis. Samples were analyzed using LC-MS/MS. WinNonlin were used for pharmacokinetic calculations.

[3] = Microsomal stability (dog); type: in vitro ADME; details: dog liver microsomes 0.5 mg/mL; read-out: Microsomal stability (in vitro CLint), Dog
Protocol: as §1, §2, §3, §4, §5, §6, §7, §8

[4] = Microsomal stability (human); type: in vitro ADME; details: human liver microsomes 0.5 mg/mL; read-out: Microsomal stability (in vitro CLint), Human
Protocol: as §1, §2, §3, §4, §5, §6, §7, §8

[5] = target: T1, β2 adrenergic receptor (Homo sapiens, UniProt P07550); test: cAMP Gs dynamic HTRF assay, β2 expressing CHO cells; type: cell-based
T1 construct: expressed in transfected cells
Protocol: (§9) cAMP homogeneous time-resolved fluorescence (HTRF). Compound efficacy was determined using the cAMP Gs dynamic HTRF assay (Cisbio, catalog #62AM4PEC) largely following the manufacturer's instructions, also detailed below.
(§10) Compound preparation. […] Standard serial dilution curves were 10-point, 5-fold dilutions starting from a highest concentration of 10 μM. […] Assay plates were centrifuged at 500×g for 10 seconds. Compounds and IBMX were prepared at 2× final dose to compensate for addition of cells.
(§11) Cell preparation. […] Cells were harvested using assay PBS, counted manually by hemocytometer or by an automated cell counter, pelleted by centrifugation (200×g, 5 minutes) and resuspended in 37° C. […]
(§12) HTRF reagent addition, reading and data analysis. […] Plates were centrifuged again at 500×g for 10 seconds, and HTRF was measured using a Tecan Spark plate reader at 50 flashes per well. […] Potency estimates (EC50) were derived from the four-parameter nonlinear regression of the concentration-effect curve and an estimate of relative efficacy was determined by comparing the magnitude of the test compound HTRF signal window (min-max dose) with the signal window of the full agonist control, isoproterenol.

[6] = target: T2, β1 adrenergic receptor (Homo sapiens, UniProt P08588); test: cAMP Gs dynamic HTRF assay, β1 expressing CHO cells; type: cell-based
T2 construct: expressed in transfected cells
Protocol: as §9, §10, §11, §12

T1 sequence (P07550 whole entry): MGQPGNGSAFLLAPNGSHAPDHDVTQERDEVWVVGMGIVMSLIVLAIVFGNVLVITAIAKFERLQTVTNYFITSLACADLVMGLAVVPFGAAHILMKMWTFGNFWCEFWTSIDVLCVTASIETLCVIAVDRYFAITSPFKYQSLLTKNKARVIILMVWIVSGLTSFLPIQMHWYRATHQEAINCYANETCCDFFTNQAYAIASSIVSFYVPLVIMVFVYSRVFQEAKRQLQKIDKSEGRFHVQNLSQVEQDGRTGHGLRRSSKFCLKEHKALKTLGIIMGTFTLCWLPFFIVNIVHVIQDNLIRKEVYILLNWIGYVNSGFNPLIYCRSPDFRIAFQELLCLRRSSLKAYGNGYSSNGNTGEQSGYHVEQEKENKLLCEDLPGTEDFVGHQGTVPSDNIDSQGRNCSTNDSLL
T2 sequence (P08588 whole entry): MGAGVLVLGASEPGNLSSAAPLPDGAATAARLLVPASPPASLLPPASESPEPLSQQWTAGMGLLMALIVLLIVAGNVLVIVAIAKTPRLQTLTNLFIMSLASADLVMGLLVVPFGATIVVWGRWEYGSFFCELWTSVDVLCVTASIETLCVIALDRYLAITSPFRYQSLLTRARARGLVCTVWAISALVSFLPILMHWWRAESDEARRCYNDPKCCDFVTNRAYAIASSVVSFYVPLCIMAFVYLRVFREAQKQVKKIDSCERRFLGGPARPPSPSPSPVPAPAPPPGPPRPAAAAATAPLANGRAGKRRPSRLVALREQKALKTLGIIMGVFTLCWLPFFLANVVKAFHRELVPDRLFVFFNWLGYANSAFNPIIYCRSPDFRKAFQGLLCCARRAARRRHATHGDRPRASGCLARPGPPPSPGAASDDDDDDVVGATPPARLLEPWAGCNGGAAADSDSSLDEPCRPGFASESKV

Row | SMILES | microsomal CLint [1] [µL/min/mg] | Vss_obs [2] [L/kg] | microsomal CLint [3] [µL/min/mg] | microsomal CLint [4] [µL/min/mg] | EC50 [5] [nM] | EC50 [6] [nM] | AUClast [2] [ng·h/mL]
1 | CC(C)(C)NC[C@H](O)c1cccc(C#N)n1 [Compound 03-5, (S)-6-(2-(tert-butylamino)-1-hydroxyethyl)picolinonitrile] | 2.53 | 1.89 | 4.32 | 2.96 | – | – | –
2 | COc1ccc(C[C@@H](C)NC[C@H](O)c2ccc(C3CC3)nc2C)cc1 [Compound 03-269] | – | – | – | – | < 10 | 10 to 100 | –
3 | CC(C)(C)NC[C@H](O)c1cccc(C(F)(F)F)n1 [Compound 03-3] | 3.48 | 2.92 | 7.99 | 3.49 | – | – | 546
